In patent US4005076A, “Hydrazones of 3-formylrifamycin SV” (Gruppo Lepetit S.p.A., priority 1971, dated 1977):
Converted amounts (≈) assume the structure as drawn.

Assays:
[1] = tested on: Staphylococcus aureus strain which is resistant to rifampicin (Staph. aureus Tour); assay: in vitro minimal inhibitory concentration against rifampicin-resistant Staphylococcus aureus strain; assay type: cell-based; details: Staphylococcus aureus, read-out: Minimal inhibitory concentration
Description: In particular, compounds illustrative of the invention at concentrations of about 10 to 20 μg/ml or less inhibit the growth of a Staph. aureus Tour strain resistant to rifampicin.
One of the most important characteristics of the new hydrazones is their activity against rifampicin-resistant Staphylococcus aureus strains. Rifampicin, that is 3-(4-methyl-1-piperazinyl)iminomethylrifamycin SV, disclosed in U.S. Pat. No. 3,342,810, is the most known and widely used rifamycin derivative in therapeutic practice.
The data of the new compounds are compared with those of representative hydrazones disclosed in U.S. Pat. No. 3,342,810.

[2] = target: T1, mouse embryo RNA-polymerase I (ME-RNA-P1) (Mus musculus, UniProt O35134+P70700); assay: effect on mouse embryo RNA-polymerase I; assay type: biochemical; details: Single Stranded Calf-Thymus DNA; for remaining activity at 10 µg: 10μg, read-out: % Control Activity of ME-RNA-P1 at 10μg; for remaining activity at 100 µg: 100μg, read-out: % Control Activity of ME-RNA-P1 at 100μg
T1 construct: mouse embryo RNA-polymerase I (ME-RNA-P1); endogenous in cells; host or cells: mouse embryo cells
Source text: (§1) Calf-Thymus DNA. Me-RNA-P1 and ME-RNA-P2 : Single Stranded

[3] = target: T2, mouse embryo RNA-polymerase II (ME-RNA-P2) (Mus musculus, UniProt P08775+Q8CFI7); assay: effect on mouse embryo RNA-polymerase II; assay type: biochemical; details: Single Stranded Calf-Thymus DNA; for remaining activity at 10 µg: 10μg, read-out: % Control Activity of ME-RNA-P2 at 10μg; for remaining activity at 100 µg: 100μg, read-out: % Control Activity of ME-RNA-P2 at 100μg
T2 construct: mouse embryo RNA-polymerase II (ME-RNA-P2); endogenous in cells; host or cells: mouse embryo cells
Source text: as §1

[4] = tested on: mouse embryo DNA-polymerase II (ME-DNA-P2); assay: effect on mouse embryo DNA-polymerase II; assay type: biochemical; details: activated Calf-Thymus DNA
Source text: (§2) Oligo dT.Poly rA. ME-DNA-P1 and ME-DNA-p2 : activated

[5] = target: T3, sarcoma virus DNA-polymerases (SSV-DNA-P) (Woolly monkey sarcoma virus, UniProt P03359); assay: effect on activity of SSV-polymerase; assay type: biochemical; details: template Oligo dT.Poly rA
T3 construct: sarcoma virus DNA-polymerases (SSV-DNA-P)
T3 sequence (P03359 642-1310): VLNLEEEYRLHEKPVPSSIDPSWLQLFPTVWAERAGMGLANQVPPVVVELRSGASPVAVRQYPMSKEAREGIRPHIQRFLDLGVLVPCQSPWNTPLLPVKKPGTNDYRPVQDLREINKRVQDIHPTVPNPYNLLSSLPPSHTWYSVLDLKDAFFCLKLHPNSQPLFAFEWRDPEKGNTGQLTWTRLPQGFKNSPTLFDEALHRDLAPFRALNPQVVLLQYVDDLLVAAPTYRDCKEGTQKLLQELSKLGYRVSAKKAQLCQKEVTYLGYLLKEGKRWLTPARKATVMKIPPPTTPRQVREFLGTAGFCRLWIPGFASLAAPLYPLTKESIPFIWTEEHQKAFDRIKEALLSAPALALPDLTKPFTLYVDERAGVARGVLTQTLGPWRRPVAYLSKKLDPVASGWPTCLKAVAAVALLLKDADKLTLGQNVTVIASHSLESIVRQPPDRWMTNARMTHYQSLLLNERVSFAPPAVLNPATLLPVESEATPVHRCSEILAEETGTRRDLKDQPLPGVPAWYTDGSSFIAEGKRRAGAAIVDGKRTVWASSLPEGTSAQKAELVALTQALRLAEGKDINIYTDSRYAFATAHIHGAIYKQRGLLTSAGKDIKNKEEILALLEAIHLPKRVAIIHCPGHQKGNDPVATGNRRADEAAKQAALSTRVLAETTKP
Source text: Templates used in the Enzymatic Assays were the following: SSV-DNA-P: […]

[6] = tested on: mouse embryo DNA-polymerase I (ME-DNA-P1); assay: effect on mouse embryo DNA-polymerase I; assay type: biochemical; details: activated Calf-Thymus DNA
Source text: as §2

CCN(CC)N=Cc1c2c(O)c3c(O)c(C)c4c(c3c1O)C(=O)C(C)(OC=CC(OC)C(C)C(OC(C)=O)C(C)C(O)C(C)C(O)C(C)C=CC=C(C)C(=O)N2)O4 (centres unmarked) [N,N-Diethylhydrazone of 3-formylrifamycin SV]
MIC [1]: > 100 µg/mL

COC1C=COC2(C)Oc3c(C)c(O)c4c(O)c(c(C=NNc5cc(-c6ccccc6)nc6cc(C(F)(F)F)ccc56)c(O)c4c3C2=O)NC(=O)C(C)=CC=CC(C)C(O)C(C)C(O)C(C)C(OC(C)=O)C1C (centres unmarked) [Example 23]
MIC [1]: 20 µg/mL (≈ 19.8 µM)

COC1C=COC2(C)Oc3c(C)c(O)c4c(O)c(c(C=NNc5ccccc5C)c(O)c4c3C2=O)NC(=O)C(C)=CC=CC(C)C(O)C(C)C(O)C(C)C(OC(C)=O)C1C (centres unmarked) [Example 38]
MIC [1]: 20 µg/mL (≈ 24.1 µM)

COC1C=COC2(C)Oc3c(C)c(O)c4c(O)c(c(C=NNc5cc(C)c6cccc(C)c6n5)c(O)c4c3C2=O)NC(=O)C(C)=CC=CC(C)C(O)C(C)C(O)C(C)C(OC(C)=O)C1C (centres unmarked) [Example 25]
MIC [1]: 20 µg/mL (≈ 22.3 µM)

COC1C=COC2(C)Oc3c(C)c(O)c4c(O)c(c(C=NNc5ccccc5)c(O)c4c3C2=O)NC(=O)C(C)=CC=CC(C)C(O)C(C)C(O)C(C)C(OC(C)=O)C1C (centres unmarked) [Phenylhydrazone of 3-formylrifamycin SV]
MIC [1]: 100 µg/mL (≈ 123 µM)

COC1C=COC2(C)Oc3c(C)c(O)c4c(O)c(c(C=NNc5ccc(F)cc5)c(O)c4c3C2=O)NC(=O)C(C)=CC=CC(C)C(O)C(C)C(O)C(C)C(OC(C)=O)C1C (centres unmarked) [Example 37]
MIC [1]: 50 µg/mL (≈ 60 µM)

COC1C=COC2(C)Oc3c(C)c(O)c4c(O)c(c(C=NNc5c(Cl)cc(Cl)cc5Cl)c(O)c4c3C2=O)NC(=O)C(C)=CC=CC(C)C(O)C(C)C(O)C(C)C(OC(C)=O)C1C (centres unmarked) [Example 39]
MIC [1]: 5 µg/mL (≈ 5.44 µM)

COC1C=COC2(C)Oc3c(C)c(O)c4c(O)c(c(C=NNc5cccc(C)c5)c(O)c4c3C2=O)NC(=O)C(C)=CC=CC(C)C(O)C(C)C(O)C(C)C(OC(C)=O)C1C (centres unmarked) [Example 26]
MIC [1]: 20 µg/mL (≈ 24.1 µM)

COC1C=COC2(C)Oc3c(C)c(O)c4c(O)c(c(C=NNC5CCCCC5)c(O)c4c3C2=O)NC(=O)C(C)=CC=CC(C)C(O)C(C)C(O)C(C)C(OC(C)=O)C1C (centres unmarked) [Example 2]
MIC [1]: 20 µg/mL (≈ 24.3 µM)

COC1C=COC2(C)Oc3c(C)c(O)c4c(O)c(c(C=NNC5CCCC5)c(O)c4c3C2=O)NC(=O)C(C)=CC=CC(C)C(O)C(C)C(O)C(C)C(OC(C)=O)C1C (centres unmarked) [Example 1]
MIC [1]: 20 µg/mL (≈ 24.8 µM)

COC1C=COC2(C)Oc3c(C)c(O)c4c(O)c(c(C=NN(C)Cc5ccc(-c6ccccc6)cc5)c(O)c4c3C2=O)NC(=O)C(C)=CC=CC(C)C(O)C(C)C(O)C(C)C(OC(C)=O)C1C (centres unmarked) [Example 42]
MIC [1]: 5 µg/mL (≈ 5.43 µM)

COC1C=COC2(C)Oc3c(C)c(O)c4c(c3C2=O)C2(C=C(NC(=O)C(C)=CC=CC(C)C(O)C(C)C(O)C(C)C(OC(C)=O)C1C)C4=O)OCC(=O)O2 (centres unmarked) [rifamycin O]
remaining activity at 10 µg [2]: 77% | remaining activity at 100 µg [2]: 75% | remaining activity at 10 µg [3]: 93% | remaining activity at 100 µg [3]: 65% | % Control Activity of ME-DNA-P2 at 10μg [4]: 97% | % Control Activity of ME-DNA-P2 at 100μg [4]: 5% | % Control Activity of SSV-DNA-P at 5μg [5]: 100% | % Control Activity of SSV-DNA-P at 10μg [5]: 98% | % Control Activity of SSV-DNA-P at 100μg [5]: 83% | % Control Activity of ME-DNA-P1 at 10μg [6]: 92% | % Control Activity of ME-DNA-P1 at 100μg [6]: 65%

CCCCCN(CCCCC)N=Cc1c2c(O)c3c(O)c(C)c4c(c3c1O)C(=O)C(C)(OC=CC(OC)C(C)C(OC(C)=O)C(C)C(O)C(C)C(O)C(C)C=CC=C(C)C(=O)N2)O4 (centres unmarked) [Example 46]
MIC [1]: 1 µg/mL (≈ 1.14 µM)

COC1C=COC2(C)Oc3c(C)c(O)c4c(O)c(c(C=NNCCOc5c(Cl)cc(N)cc5Cl)c(O)c4c3C2=O)NC(=O)C(C)=CC=CC(C)C(O)C(C)C(O)C(C)C(OC(C)=O)C1C (centres unmarked) [Example 34]
MIC [1]: 50 µg/mL (≈ 53 µM)

CO[C@H]1/C=C/O[C@@]2(C)Oc3c(C)c(O)c4c(O)c(cc(O)c4c3C2=O)NC(=O)/C(C)=C\C=C\[C@H](C)[C@H](O)[C@@H](C)[C@@H](O)[C@@H](C)[C@H](OC(C)=O)[C@@H]1C [rifamycin SV]
remaining activity at 10 µg [2]: 84% | remaining activity at 100 µg [2]: 106% | remaining activity at 5 µg ([3]; 5μg, read-out: % Control Activity of ME-RNA-P2 at 5μg): 89% | remaining activity at 10 µg [3]: 87% | remaining activity at 100 µg [3]: 82% | % Control Activity of ME-DNA-P2 at 5μg ([4]; 5μg): 94% | % Control Activity of ME-DNA-P2 at 10μg [4]: 100% | % Control Activity of ME-DNA-P2 at 100μg [4]: 72% | % Control Activity of SSV-DNA-P at 5μg [5]: 105% | % Control Activity of SSV-DNA-P at 10μg [5]: 75% | % Control Activity of SSV-DNA-P at 100μg [5]: 61% | % Control Activity of ME-DNA-P1 at 5μg ([6]; 5μg): 91% | % Control Activity of ME-DNA-P1 at 10μg [6]: 95% | % Control Activity of ME-DNA-P1 at 100μg [6]: 105%

COC1C=COC2(C)Oc3c(C)c(O)c4c(O)c(c(C=NNc5c(C)cc(C(C)(C)C)cc5C)c(O)c4c3C2=O)NC(=O)C(C)=CC=CC(C)C(O)C(C)C(O)C(C)C(OC(C)=O)C1C (centres unmarked) [Example 41]
MIC [1]: 20 µg/mL (≈ 22.2 µM)

COC1C=COC2(C)Oc3c(C)c(O)c4c(O)c(c(C=NNc5ccnc6c(C(F)(F)F)cccc56)c(O)c4c3C2=O)NC(=O)C(C)=CC=CC(C)C(O)C(C)C(O)C(C)C(OC(C)=O)C1C (centres unmarked) [Example 22]
MIC [1]: 50 µg/mL (≈ 53.5 µM)

CNN=Cc1c2c(O)c3c(O)c(C)c4c(c3c1O)C(=O)C(C)(OC=CC(OC)C(C)C(OC(C)=O)C(C)C(O)C(C)C(O)C(C)C=CC=C(C)C(=O)N2)O4 (centres unmarked) [N-Methylhydrazone of 3-formylrifamycin SV]
MIC [1]: > 100 µg/mL

CO[C@H]1/C=C/O[C@@]2(C)Oc3c(C)c(O)c4c(c3C2=O)C(=O)C=C(NC(=O)/C(C)=C\C=C\[C@H](C)[C@H](O)[C@@H](C)[C@@H](O)[C@@H](C)[C@H](OC(C)=O)[C@@H]1C)C4=O [rifamycin S]
remaining activity at 10 µg [2]: 102% | remaining activity at 100 µg [2]: 90% | remaining activity at 10 µg [3]: 78% | remaining activity at 100 µg [3]: 81% | % Control Activity of ME-DNA-P2 at 10μg [4]: 94% | % Control Activity of ME-DNA-P2 at 100μg [4]: 9% | % Control Activity of SSV-DNA-P at 5μg [5]: 88% | % Control Activity of SSV-DNA-P at 10μg [5]: 108% | % Control Activity of SSV-DNA-P at 100μg [5]: 100% | % Control Activity of ME-DNA-P1 at 10μg [6]: 84% | % Control Activity of ME-DNA-P1 at 100μg [6]: 86%

COC1C=COC2(C)Oc3c(C)c(O)c4c(O)c(c(C=NNC56CC7CC(CC(C7)C5)C6)c(O)c4c3C2=O)NC(=O)C(C)=CC=CC(C)C(O)C(C)C(O)C(C)C(OC(C)=O)C1C (centres unmarked) [Example 47]
MIC [1]: 5 µg/mL (≈ 5.72 µM)

COc1ccccc1NN=Cc1c2c(O)c3c(O)c(C)c4c(c3c1O)C(=O)C(C)(OC=CC(OC)C(C)C(OC(C)=O)C(C)C(O)C(C)C(O)C(C)C=CC=C(C)C(=O)N2)O4 (centres unmarked) [Example 33]
MIC [1]: 50 µg/mL (≈ 59.1 µM)

COC1C=COC2(C)Oc3c(C)c(O)c4c(O)c(c(C=NNc5cccc(C(F)(F)F)c5)c(O)c4c3C2=O)NC(=O)C(C)=CC=CC(C)C(O)C(C)C(O)C(C)C(OC(C)=O)C1C (centres unmarked) [Example 43, 3-Formylrifamycin SV: hydrazone of ((3-trifluoromethyl)-phenyl) hydrazine]
MIC [1]: 10 µg/mL (≈ 11.3 µM)

COC1C=COC2(C)Oc3c(C)c(O)c4c(O)c(c(C=NNc5ccccc5[N+](=O)[O-])c(O)c4c3C2=O)NC(=O)C(C)=CC=CC(C)C(O)C(C)C(O)C(C)C(OC(C)=O)C1C (centres unmarked) [Example 35]
MIC [1]: 20 µg/mL (≈ 23.2 µM)

COC1C=COC2(C)Oc3c(C)c(O)c4c(O)c(c(C=NNc5cccc([N+](=O)[O-])c5)c(O)c4c3C2=O)NC(=O)C(C)=CC=CC(C)C(O)C(C)C(O)C(C)C(OC(C)=O)C1C (centres unmarked) [Example 36]
MIC [1]: 50 µg/mL (≈ 58.1 µM)

CCCCCN(C)N=Cc1c2c(O)c3c(O)c(C)c4c(c3c1O)C(=O)C(C)(OC=CC(OC)C(C)C(OC(C)=O)C(C)C(O)C(C)C(O)C(C)C=CC=C(C)C(=O)N2)O4 (centres unmarked) [Example 3]
MIC [1]: 10 µg/mL (≈ 12.1 µM)

COC1C=COC2(C)Oc3c(C)c(O)c4c(O)c(c(C=NNc5ccc(C(=O)O)cc5)c(O)c4c3C2=O)NC(=O)C(C)=CC=CC(C)C(O)C(C)C(O)C(C)C(OC(C)=O)C1C (centres unmarked) [p-Carboxyphenylhydrazone of 3-formylrifamycin SV]
MIC [1]: > 100 µg/mL
